Results from BindingDB's records for patent WO2022109580 (JANSSEN PHARMACEUTICA NV, 2022).

Molecular target: T1, Non-receptor tyrosine-protein kinase TYK2 [556-871] (Homo sapiens, UniProt P29597)
T1 construct: 556-871
Experiment: Probe Displacement Assay
Method: The probe displacement assay is conducted as follows: In a 384-well plate, test compound along with recombinantly expressed His-tagged protein corresponding to amino acids 556-871 of human TYK2 (sequence shown below) at 5 nM, 33 nM probe (BB, preparation described below) and 0.33 mg/mL Yttrium oxide (YOx) His-capture SPA beads (PerkinElmer, RPNQ0276) in IX PBS containing 10 mM MgCl2, 0.1 mg/mL BSA, 0.1 mM TCEP, 0.005% Tween-20, and 1% DMSO (final concentration) were incubated for 10 hours at room temperature. The amount of radiolabeled probe bound to TYK2 was then quantified using a ViewLux Microplate Imager, and the fraction bound by the test compound calculated by comparison to wells containing scale references for 0% and 100% probe displacement. The IC50 value is defined as the concentration of test compound required to inhibit radiolabeled probe binding by 50%.

T1 sequence (P29597 556-871): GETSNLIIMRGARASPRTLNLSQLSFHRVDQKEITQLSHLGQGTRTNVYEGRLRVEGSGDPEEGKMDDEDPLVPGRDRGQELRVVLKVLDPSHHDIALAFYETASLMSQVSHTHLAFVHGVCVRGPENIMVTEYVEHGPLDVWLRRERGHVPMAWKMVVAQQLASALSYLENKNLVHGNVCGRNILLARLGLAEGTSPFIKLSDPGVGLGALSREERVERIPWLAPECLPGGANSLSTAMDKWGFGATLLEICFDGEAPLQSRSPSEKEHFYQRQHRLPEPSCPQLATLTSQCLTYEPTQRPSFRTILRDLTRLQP

IC50	Compound
2 nM	CO[C@@]1(c2cc(C)cc(-n3nc(-c4cnn(C)c4)c4cnc(NC(N)=O)cc43)n2)CCOC1 [WO2022109580, Example 1]
4 nM	CO[C@]1(c2cc(C)cc(-n3nc(-c4cnn(C)c4)c4cnc(NC(N)=O)cc43)n2)CCOC1 [WO2022109580, Example 2]
1 nM	CO[C@@]1(c2cc(C)cc(-n3nc(-c4cnoc4)c4cnc(NC(N)=O)cc43)n2)CCOC1 [WO2022109580, Example 3]
2 nM	CO[C@]1(c2cc(C)cc(-n3nc(-c4cnoc4)c4cnc(NC(N)=O)cc43)n2)CCOC1 [WO2022109580, Example 4]
3 nM	CO[C@@]1(c2cc(C)cc(-n3nc(C)c4cnc(NC(N)=O)cc43)n2)CCOC1 [WO2022109580, Example 5]
8 nM	CO[C@]1(c2cc(C)cc(-n3nc(C)c4cnc(NC(N)=O)cc43)n2)CCOC1 [WO2022109580, Example 6]
2 nM	COCCOc1cc(-n2nc(C)c3cnc(NC(N)=O)cc32)nc([C@]2(OC)CCOC2)c1 [WO2022109580, Example 9]
6 nM	COCCOc1cc(-n2nc(C)c3cnc(NC(N)=O)cc32)nc([C@@]2(OC)CCOC2)c1 [WO2022109580, Example 10]
2 nM	CO[C@@]1(c2cc(OC[C@@H](C)O)cc(-n3nc(C)c4cnc(NC(N)=O)cc43)n2)CCOC1 [WO2022109580, Example 11]
6 nM	CO[C@]1(c2cc(OC[C@@H](C)O)cc(-n3nc(C)c4cnc(NC(N)=O)cc43)n2)CCOC1 [WO2022109580, Example 12]
2 nM	CO[C@@]1(c2cc(OCC3COC3)cc(-n3nc(C)c4cnc(NC(N)=O)cc43)n2)CCOC1 [WO2022109580, Example 13]
4 nM	CO[C@]1(c2cc(OCC3COC3)cc(-n3nc(C)c4cnc(NC(N)=O)cc43)n2)CCOC1 [WO2022109580, Example 14]
7 nM	CO[C@]1(c2cc(OCC3CS(=O)(=O)C3)cc(-n3nc(C)c4cnc(NC(N)=O)cc43)n2)CCOC1 [WO2022109580, Example 16]
4 nM	CO[C@@]1(c2cc(C)cc(-n3cc(C)c4cnc(NC(N)=O)cc43)n2)CCOC1 [WO2022109580, Example 17]
8 nM	CO[C@]1(c2cc(C)cc(-n3cc(C)c4cnc(NC(N)=O)cc43)n2)CCOC1 [WO2022109580, Example 18]
2 nM	CO[C@@]1(c2cc(OCC3COC3)cc(-n3cc(C)c4cnc(NC(N)=O)cc43)n2)CCOC1 [WO2022109580, Example 19]
11 nM	CO[C@]1(c2cc(OCC3COC3)cc(-n3cc(C)c4cnc(NC(N)=O)cc43)n2)CCOC1 [WO2022109580, Example 20]
14 nM	CO[C@]1(c2cc(OCC3CS(=O)(=O)C3)cc(-n3cc(C)c4cnc(NC(N)=O)cc43)n2)CCOC1 [WO2022109580, Example 22]
5 nM	CO[C@@]1(c2cc(C)cc(N3C=C(c4cnn(C)c4)N4C=NC(NC(N)=O)=CC43)n2)CCOC1 (stereo partly specified) [WO2022109580, Example 23]
42 nM	CO[C@]1(c2cc(C)cc(-c3cc(-c4cnn(C)c4)n4cnc(NC(N)=O)cc34)n2)CCOC1 [WO2022109580, Example 24]
2 nM	CO[C@]1(c2cc(C)cc(-c3cc(C)n4cnc(NC(N)=O)cc34)n2)CCOC1 [WO2022109580, Example 25]
